# Experimental data: PubChem BioAssay AID1963963 (Molecular Pharmacology Branch, DTP, NCI, 2024)
# Tested on: 958667-338-R-J2-PDC tumor spheroids viability
# Assay: Anticancer human tumor 958667-338-R-J2-PDC patient-derived colon adenocarcinoma cell line growth inhibition [PI3K]
# Settings: spheroids with HUVEC and MSC; for IC50: curve of first compound; for viability, T/C: stronger effect = lower value
# Summary of the method: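 Three cell types, namely tumor cells, endothelial cells and mesenchymal stem cells, formed each spheroid. Combinations with four PI3K inhibitors were screened at clinically achievable concentrations decreasing by half-log, and spheroid viability was recorded.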
# [1] = second compound 0.00316 µM, first compound 0.0316 µM
# [2] = second compound 0.00316 µM, first compound 0.1 µM
# [3] = second compound 0.00316 µM, first compound 0.316 µM
# [4] = second compound 0.00316 µM, first compound 1 µM
# [5] = second compound 0.00316 µM, first compound 3.16 µM
# [6] = second compound 0.00316 µM, first compound 10 µM
# [7] = second compound 0.01 µM, first compound 0.0316 µM
# [8] = second compound 0.01 µM, first compound 0.1 µM
# [9] = second compound 0.01 µM, first compound 0.316 µM
# [10] = second compound 0.01 µM, first compound 1 µM
# [11] = second compound 0.01 µM, first compound 3.16 µM
# [12] = second compound 0.01 µM, first compound 10 µM
# [13] = second compound 0.0316 µM, first compound 0.0316 µM
# [14] = second compound 0.0316 µM, first compound 0.1 µM
# [15] = second compound 0.0316 µM, first compound 0.316 µM
# [16] = second compound 0.0316 µM, first compound 1 µM
# [17] = second compound 0.0316 µM, first compound 3.16 µM
# [18] = second compound 0.0316 µM, first compound 10 µM
# [19] = second compound 0.1 µM, first compound 0.0316 µM
# [20] = second compound 0.1 µM, first compound 0.1 µM
# [21] = second compound 0.1 µM, first compound 0.316 µM
# [22] = second compound 0.1 µM, first compound 1 µM
# [23] = second compound 0.1 µM, first compound 3.16 µM
# [24] = second compound 0.1 µM, first compound 10 µM
# [25] = second compound 0.316 µM, first compound 0.0316 µM
# [26] = second compound 0.316 µM, first compound 0.1 µM
# [27] = second compound 0.316 µM, first compound 0.316 µM
# [28] = second compound 0.316 µM, first compound 1 µM
# [29] = second compound 0.316 µM, first compound 3.16 µM
# [30] = second compound 0.316 µM, first compound 10 µM
# [31] = second compound 1 µM, first compound 0.0316 µM
# [32] = second compound 1 µM, first compound 0.1 µM
# [33] = second compound 1 µM, first compound 0.316 µM
# [34] = second compound 1 µM, first compound 1 µM
# [35] = second compound 1 µM, first compound 3.16 µM
# [36] = second compound 1 µM, first compound 10 µM
# 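Further: spheroids exposed to compounds for seven days before readout.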
smiles,measurement,setting,value
C#Cc1c(F)ccc2cc(O)cc(-c3ncc4c(N5CC6CCC(C5)N6)nc(OCC56CCCN5CC(F)C6)nc4c3F)c12 (stereo unspecified) + CC(Nc1ccc2c(c1)OCCn1cc(N3C(=O)OCC3C(F)F)nc1-2)C(N)=O,IC50,second compound 0.00316 µM,> 10 µM
same,IC50,second compound 0.01 µM,> 10 µM
same,IC50,second compound 0.0316 µM,8.56 µM
same,IC50,second compound 0.1 µM,6.62 µM
same,IC50,second compound 0.316 µM,3.47 µM
same,IC50,second compound 1 µM,1.4 µM
same,"viability, T/C",[1],95.2%
same,"viability, T/C",[2],97.9%
same,"viability, T/C",[3],110%
same,"viability, T/C",[4],90.9%
same,"viability, T/C",[5],90.6%
same,"viability, T/C",[6],60.7%
same,"viability, T/C",[7],101%
same,"viability, T/C",[8],120%
same,"viability, T/C",[9],121%
same,"viability, T/C",[10],97.3%
same,"viability, T/C",[11],74.2%
same,"viability, T/C",[12],74.2%
same,"viability, T/C",[13],99.9%
same,"viability, T/C",[14],109%
same,"viability, T/C",[15],100%
same,"viability, T/C",[16],118%
same,"viability, T/C",[17],83.1%
same,"viability, T/C",[18],44.8%
same,"viability, T/C",[19],69.2%
same,"viability, T/C",[20],81%
same,"viability, T/C",[21],77.4%
same,"viability, T/C",[22],84.1%
same,"viability, T/C",[23],71.4%
same,"viability, T/C",[24],37.2%
same,"viability, T/C",[25],69.1%
same,"viability, T/C",[26],62%
same,"viability, T/C",[27],66.7%
same,"viability, T/C",[28],85.6%
same,"viability, T/C",[29],52.4%
same,"viability, T/C",[30],22.5%
same,"viability, T/C",[31],61%
same,"viability, T/C",[32],64.4%
same,"viability, T/C",[33],44.6%
same,"viability, T/C",[34],57.2%
same,"viability, T/C",[35],45%
same,"viability, T/C",[36],25.6%
CC(Cn1ccc(-c2ccc(C#N)c(Cl)c2)n1)NC(=O)c1cc(C(C)O)[nH]n1 (stereo unspecified) + CC(Nc1ccc2c(c1)OCCn1cc(N3C(=O)OCC3C(F)F)nc1-2)C(N)=O,IC50,second compound 0.00316 µM,> 10 µM
same,IC50,second compound 0.01 µM,> 10 µM
same,IC50,second compound 0.0316 µM,> 10 µM
same,IC50,second compound 0.1 µM,> 10 µM
same,IC50,second compound 0.316 µM,> 10 µM
same,IC50,second compound 1 µM,> 10 µM
same,"viability, T/C",[1],118%
same,"viability, T/C",[2],111%
same,"viability, T/C",[3],126%
same,"viability, T/C",[4],117%
same,"viability, T/C",[5],84.7%
same,"viability, T/C",[6],99.2%
same,"viability, T/C",[7],92.7%
same,"viability, T/C",[8],106%
same,"viability, T/C",[9],77.4%
same,"viability, T/C",[10],91.4%
same,"viability, T/C",[11],90.6%
same,"viability, T/C",[12],90.5%
same,"viability, T/C",[13],89.8%
same,"viability, T/C",[14],99.9%
same,"viability, T/C",[15],97.8%
same,"viability, T/C",[16],93%
same,"viability, T/C",[17],95%
same,"viability, T/C",[18],75.2%
same,"viability, T/C",[19],111%
same,"viability, T/C",[20],88.9%
same,"viability, T/C",[21],81.1%
same,"viability, T/C",[22],78.6%
same,"viability, T/C",[23],91.1%
same,"viability, T/C",[24],82.4%
same,"viability, T/C",[25],80%
same,"viability, T/C",[26],49.7%
same,"viability, T/C",[27],84.5%
same,"viability, T/C",[28],63.6%
same,"viability, T/C",[29],63.7%
same,"viability, T/C",[30],78.8%
same,"viability, T/C",[31],64.2%
same,"viability, T/C",[32],61.2%
same,"viability, T/C",[33],66.1%
same,"viability, T/C",[34],62.8%
same,"viability, T/C",[35],55.7%
same,"viability, T/C",[36],49.8%
CC1(C)CCC(Nc2ncc(C(F)(F)F)c(-c3c[nH]c4c(P(C)(C)=O)c(C#N)ccc34)n2)CN1 (stereo unspecified) + CC(Nc1ccc2c(c1)OCCn1cc(N3C(=O)OCC3C(F)F)nc1-2)C(N)=O,IC50,second compound 0.00316 µM,4.62 µM
same,IC50,second compound 0.01 µM,2.8 µM
same,IC50,second compound 0.0316 µM,2.55 µM
same,IC50,second compound 0.1 µM,4.67 µM
same,IC50,second compound 0.316 µM,1.68 µM
same,IC50,second compound 1 µM,1.64 µM
same,"viability, T/C",[1],108%
same,"viability, T/C",[2],85.9%
same,"viability, T/C",[3],79.7%
same,"viability, T/C",[4],75.2%
same,"viability, T/C",[5],67.8%
same,"viability, T/C",[6],29.5%
same,"viability, T/C",[7],135%
same,"viability, T/C",[8],109%
same,"viability, T/C",[9],76.9%
same,"viability, T/C",[10],63.2%
same,"viability, T/C",[11],67.6%
same,"viability, T/C",[12],20.1%
same,"viability, T/C",[13],111%
same,"viability, T/C",[14],108%
same,"viability, T/C",[15],58.2%
same,"viability, T/C",[16],60.7%
same,"viability, T/C",[17],64.6%
same,"viability, T/C",[18],25.7%
same,"viability, T/C",[19],95.2%
same,"viability, T/C",[20],78.6%
same,"viability, T/C",[21],71.5%
same,"viability, T/C",[22],75.8%
same,"viability, T/C",[23],66.8%
same,"viability, T/C",[24],24.3%
same,"viability, T/C",[25],78.7%
same,"viability, T/C",[26],78.7%
same,"viability, T/C",[27],53.1%
same,"viability, T/C",[28],54%
same,"viability, T/C",[29],55.9%
same,"viability, T/C",[30],26.2%
same,"viability, T/C",[31],86.9%
same,"viability, T/C",[32],66.8%
same,"viability, T/C",[33],67.2%
same,"viability, T/C",[34],52.8%
same,"viability, T/C",[35],50.8%
same,"viability, T/C",[36],14.3%
